Test results published in patent publication US4272437A, “Antibacterial agents, and 4-thio azetidinone intermediates” (priority 1979, dated 1981).
≈ marks a conversion by molar mass, not a printed value. Structures can show the parent of a compound that is named as a salt. Where two headings read alike, the source gives them in different places.

Tests used:
Ser. marcescens A-20019 = assay: MIC, tube dilution, Serratia marcescens A20019; type: cell-based; settings: Serratia marcescens, A20019, Serratia marcescens A20019; overnight 37° C.; read-out: Minimum Inhibitory Concentration (M.I.C.)
Excerpt: (§1) Representative compounds of the present invention were subjected to in vitro antibiotic screening against a variety of microorganisms.

[1] = system: Staph. aureus A-9537 and 50% serum; assay: MIC, tube dilution, Staph. aureus A9537 + 50% serum; type: cell-based, Staphylococcus aureus; settings: Staphylococcus aureus, overnight 37° C., read-out: Minimum Inhibitory Concentration (M.I.C.)
Excerpt: as §1

Proteus rettgeri A21203 = assay: MIC, tube dilution, Proteus rettgeri A21203; type: cell-based; settings: Providencia rettgeri, overnight 37° C., read-out: Minimum Inhibitory Concentration (M.I.C.)
Excerpt: as §1

[2] = system: Staph. aureus (Meth-Res) A-15097; assay: MIC, tube dilution, Staphylococcus aureus A15097 (Meth-Res); type: cell-based; settings: Staphylococcus aureus, overnight 37° C.
Excerpt: as §1

[3] = system: Klebsiella species A20468; assay: MIC, tube dilution, Klebsiella species A20468; type: cell-based; settings: Klebsiella species (K. pneumoniae) A20468; overnight 37° C.; read-out: Minimum Inhibitory Concentration (M.I.C.)
Excerpt: as §1

Ps. aeruginosa A-21213 = assay: MIC, tube dilution, Pseudomonas aeruginosa A21213; type: cell-based; settings: overnight 37° C., read-out: Minimum Inhibitory Concentration (M.I.C.)
Excerpt: as §1

Str. faecalis A-20688 = assay: MIC, tube dilution, Streptococcus faecalis A20688; type: cell-based; settings: Enterococcus faecalis, A20688, Str. faecalis A20688; overnight 37° C.; read-out: Minimum Inhibitory Concentration (M.I.C.)
Excerpt: as §1

Str. pneumoniae A-9585 = assay: MIC, tube dilution, Streptococcus pneumoniae A9585; type: cell-based; settings: Streptococcus pneumoniae, A9585, Str. pneumoniae A9585; overnight 37° C., Nutrient Broth; read-out: Minimum Inhibitory Concentration (M.I.C.)
Excerpt: as §1

Pr. mirabilis A-9900 = assay: MIC, tube dilution, Proteus mirabilis A9900; type: cell-based; settings: Proteus mirabilis, A9900, Proteus mirabilis A9900; overnight 37° C.; read-out: Minimum Inhibitory Concentration (M.I.C.)
Excerpt: as §1

E. coli A-15119 = assay: MIC, tube dilution, Escherichia coli A15119; type: cell-based; settings: Escherichia coli, A15119, E. coli A15119; overnight 37° C.; read-out: Minimum Inhibitory Concentration (M.I.C.)
Excerpt: as §1

K. pneumoniae A-15130 = assay: MIC, tube dilution, Klebsiella pneumoniae A15130; type: cell-based; settings: Klebsiella pneumoniae, A15130, K. pneumoniae A15130; overnight 37° C.; read-out: Minimum Inhibitory Concentration (M.I.C.)
Excerpt: as §1

Pr. morganii A-15153 = assay: MIC, tube dilution, Proteus morganii A15153; type: cell-based; settings: Morganella morganii, A15153, Proteus morganii A15153; overnight 37° C.; read-out: Minimum Inhibitory Concentration (M.I.C.)
Excerpt: as §1

Ent. cloacae A-9656 = assay: MIC, tube dilution, Enterobacter cloacae A9656; type: cell-based; settings: overnight 37° C., read-out: Minimum Inhibitory Concentration (M.I.C.)
Excerpt: as §1

Str. pyogenes A-9604 = assay: MIC, tube dilution, Streptococcus pyogenes A9604; type: cell-based; settings: Streptococcus pyogenes, A9604, Str. pyogenes A9604; overnight 37° C., Nutrient Broth; read-out: Minimum Inhibitory Concentration (M.I.C.)
Excerpt: as §1

[4] = system: Staph. aureus (Pen-Res) A-9606; assay: MIC, tube dilution, Staphylococcus aureus A9606 (Pen-Res); type: cell-based; settings: Staphylococcus aureus, overnight 37° C.
Excerpt: as §1

Ps. aeruginosa A-9843A = assay: MIC, tube dilution, Pseudomonas aeruginosa A9843A; type: cell-based; settings: Pseudomonas aeruginosa, A9843A, read-out: Minimum Inhibitory Concentration (M.I.C.), Pseudomonas aeruginosa A9843A; overnight 37° C.
Excerpt: as §1

Proteus vulgaris A9555 = assay: MIC, tube dilution, Proteus vulgaris (mirabilis) A9555; type: cell-based; settings: overnight 37° C., read-out: Minimum Inhibitory Concentration (M.I.C.)
Excerpt: as §1

E. coli A-20341-1 = assay: MIC, tube dilution, Escherichia coli A20341-1; type: cell-based
Excerpt: as §1

Staph. aureus A-9537 = assay: MIC, tube dilution, Staphylococcus aureus A9537; type: cell-based; settings: Staphylococcus aureus, A9537, Staph. aureus A9537; overnight 37° C., Nutrient Broth; read-out: Minimum Inhibitory Concentration (M.I.C.)
Excerpt: as §1

Ent. cloacae A-9659 = assay: MIC, tube dilution, Enterobacter cloacae A9659; type: cell-based; settings: Enterobacter cloacae, A9659, Enterobacter cloacae A9659; overnight 37° C.; read-out: Minimum Inhibitory Concentration (M.I.C.)
Excerpt: as §1

Pr. vulgaris A-9716 = assay: MIC, tube dilution, Proteus vulgaris / Proteus mirabilis A9716; type: cell-based, Proteus vulgaris (name changed to Proteus mirabilis); settings: Proteus vulgaris, A9716, Proteus vulgaris / Proteus mirabilis A9716; overnight 37° C.; read-out: Minimum Inhibitory Concentration (M.I.C.)
Excerpt: as §1

[5] = stability in aqueous solution followed by UV; type: physicochemical; set-up: unit not given here; settings: for ε at λmax 255 in aqueous solution (stability) / ε at λmax 307 in aqueous solution (stability) / ε at λmax 254 in aqueous solution (stability): UV
Procedure: To a solution of penem 3 (2.4 g, 6.89 mmoles) in tetrahydrofuran-ether-water mixture (1:1:1, 165 ml) was added 30% palladium on diatomaceous earth (4.8 g). The reaction mixture was hydrogenated under 45 p.s.i. at 23° C. for 2.5 h and filtered over celite pad. The filtrate and washings were combined, washed twice with ether, centrifugated and filtered several times to give a clear solution which was lyophilized; 0.622 g, 45%. The crystallization of the compound was induced by the addition of water (0.8 ml); the suspension was centrifuged and the water was removed leaving an orange solid. This solid was washed twice with water and a slightly yellow solid was obtained after drying: […], 19.8%. UV λmax^H.sbsp.2^O : 307 (ε=4318) and 257 (ε=2650). Some crude starting material (1.2 g, 50%) was recovered. The compound (50 mg) can also be purified by column chromatography [Sephadex G10, column size: 1.6×100 cm, flow rate: 10 ml/h, eluent: distilled water, fraction volume: 1.5 ml, detector: refractive index]. UV λmax^H.sbsp.2^O 307 (ε=3597) and 255 (ε=2424).
The stability of the compound in aqueous solution was checked by:
A sample of compound 4 was kept at 23° C. for 3 days and the UV was taken: UV λmax^H.sbsp.2^O : 307 (ε=3055) and 255 (ε=2008).
To a solution of ester 6 (200 mg, 0.5 mmole) in tetrahydrofuran (10 ml) was added ether (10 ml), water (10 ml) and 30% palladium on diatomaceous earth (200 mg). The reaction mixture was hydrogenated in a Parr apparatus under 35 p.s.i. at 25° C. for 2 h 30 min and filtered over a celite pad. The filtrate was washed twice with ether and the aqueous solution was lyophilized, giving a yellow powder which was purified by column chromatography [Sephadex G-10, bed dimensions: 100×1.6 cm, flow rate: 12 ml/h, eluent: distilled water, fraction volume: 1.5 ml detector: refractive index]. The right fractions were combined and lyophilized to give a white powder (10 mg, 8.8%). UV λmax^H.sbsp.2 O 301 (ε=4930), 258 (ε=3290). IR (KBr) cm^-1 :1770 (c=o of β-lactam) and 1580 [drawing 587] The stability of compound 7 in aqueous solution was followed by UV; after 6 h: 301 (4795) and 258 (3105) and after 72 h: 301 (4565) and 258 (3150). […]

[6] = A21203, Proteus rettgeri A21203
[7] = Staph. aureus A15097 (Meth-Res), read-out: Minimum Inhibitory Concentration (M.I.C.)
[8] = Enterobacter cloacae, A9656, Enterobacter cloacae A9656
[9] = Staph. aureus A9606 (Pen-Res), read-out: Minimum Inhibitory Concentration (M.I.C.)
[10] = Escherichia coli, A203411, E. coli A20341-1; overnight 37° C.; read-out: Minimum Inhibitory Concentration (M.I.C.)
[11] = sample kept at 23° C. for 3 days, UV in H2 O

SMILES | MIC (Ser. marcescens A-20019) [mg/L] | MIC [1] [mg/L] | MIC (Proteus rettgeri A21203; [6]) [mg/L] | MIC [2, 7] [mg/L] | MIC [3] [mg/L] | MIC (Ps. aeruginosa A-21213; Pseudomonas aeruginosa A21213) [mg/L] | MIC (Str. faecalis A-20688) [mg/L] | MIC (Str. pneumoniae A-9585) [mg/L] | MIC (Pr. mirabilis A-9900) [mg/L] | MIC (E. coli A-15119) [mg/L] | MIC (K. pneumoniae A-15130) [mg/L] | MIC (Pr. morganii A-15153) [mg/L] | MIC (Ent. cloacae A-9656; [8]) [mg/L] | MIC (Str. pyogenes A-9604) [mg/L] | MIC [4, 9] [mg/L] | MIC (Ps. aeruginosa A-9843A) [mg/L] | MIC (Proteus vulgaris A9555) [mg/L] | MIC (E. coli A-20341-1; [10]) [mg/L] | MIC (Staph. aureus A-9537) [mg/L] | MIC (Ent. cloacae A-9659) [mg/L] | further results
CC1=C(C(=O)O)N2C(=O)[C@@H]([C@@H](C)O)[C@H]2S1 (relative stereo) [Example 34, cis 6-(1'-Hydroxy-1'-ethyl)-2-methylpenem-3-carboxylic Acid, Sodium Salt (isomer "D")] | 32 | 63 | 32 | 16 | 125 | 125 | 125 | 0.25 | 16 | 4 | 32 | 32 | 63 | 2 | 4 | 125 | 16 | 16 | 4 | 32 | 
O=C([O-])C1=C(c2cccnc2)S[C@@H]2CC(=O)N12.[Na+] [Example 53, Sodium 2-(3-Pyridyl)penem-3-carboxylate] | 8 | > 63 |  |  | > 125 | 125 | 8 | 0.06 | 2 | 2 | 16 | 8 |  | 0.13 |  | 125 | 2 |  | 1 | 16 | MIC (Proteus rettgeri A21203; Proteus rettgeri A21203): 2 mg/L; MIC ([2]; read-out: Minimum Inhibitory Concentration (M.I.C.), Staph. aureus A15097 (Meth-Res)): 16 mg/L; MIC (Ent. cloacae A-9656; Enterobacter cloacae A9656): 32 mg/L; MIC ([4]; read-out: Minimum Inhibitory Concentration (M.I.C.), Staph. aureus A9606 (Pen-Res)): 8 mg/L; MIC (E. coli A-20341-1; Escherichia coli, A203411; E. coli A20341-1; overnight 37° C.; read-out: Minimum Inhibitory Concentration (M.I.C.)): 63 mg/L
NCC1=C(C(=O)O)N2C(=O)CC2S1 (stereo not shown) [Example 16, 2-Aminomethylpenem-3-carboxylic Acid] | 8 (≈ 40 µM) | 32 | 1 (≈ 4.99 µM) | 63 (≈ 315 µM) | 125 (≈ 624 µM) |  | > 125 | 1 (≈ 4.99 µM) | 2 (≈ 9.99 µM) | 4 (≈ 20 µM) | 8 (≈ 40 µM) | 1 (≈ 4.99 µM) | 8 (≈ 40 µM) | 4 (≈ 20 µM) | 8 (≈ 40 µM) | 1 (≈ 4.99 µM) |  | 16 (≈ 79.9 µM) | 2 (≈ 9.99 µM) | 8 (≈ 40 µM) | MIC (Ps. aeruginosa A-21213; Pseudomonas aeruginosa, A21213, Pseudomonas aeruginosa A21213): 1 mg/L (≈ 4.99 µM); MIC (Pr. vulgaris A-9716): 2 mg/L (≈ 9.99 µM); ε at λmax 255 in aqueous solution (stability) ([5]; 6 h): 2773; ε at λmax 307 in aqueous solution (stability) ([5]; 6 h): 3545; ε at λmax 255 in aqueous solution (stability) ([5]; 21 h): 2411; ε at λmax 307 in aqueous solution (stability) ([5]; 21 h): 3467; ε at λmax 254 in aqueous solution (stability) ([5]; 28 h): 2398; ε at λmax 307 in aqueous solution (stability) ([5]; 28 h): 3337; ε at λmax 254 in aqueous solution (stability) ([5]; 46 h): 2398; ε at λmax 307 in aqueous solution (stability) ([5]; 46 h): 3259; ε at λmax 307 in aqueous solution (stability) ([5]; 70 h): 3076; ε at λmax 307 in aqueous solution (stability) ([5]; 94 h): 2842; ε at λmax 307 in aqueous solution (stability) ([5]; 170 h): 1900; ε at λmax 255 (stability of stored sample) [5, 11]: 2008; ε at λmax 307 (stability of stored sample) [5, 11]: 3055
